Assay results: patent publication US12077503B2, “Substituted cyclic amides and their use as herbicides” (FMC CORPORATION, priority 2015, dated 2024)

Assays:
Assay type in all cases: in vivo
[1] = tested on: ragweed (common ragweed, Ambrosia elatior); test: Test A preemergence; settings: for Ragweed plant response rating (0 to 100 scale, 0 is no effect, 100 is complete control): visual injury approx. 10 d
Outline: (§1)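 Seeded soil received test chemicals as a preemergence directed spray, and seedlings at one to two leaves, 2–10 cm tall, received them postemergence, in a non-phytotoxic, surfactant-containing solvent mixture. Pots were held in a greenhouse for approximately 10 d, then rated for injury from 0, no effect, to 100, complete control.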

[2] = tested on: giant foxtail (Setaria faberii); test: Test A preemergence; settings: for Foxtail, Giant plant response rating (0 to 100 scale, 0 is no effect, 100 is complete control): visual injury approx. 10 d
Outline: as §1

[3] = tested on: ryegrass, Italian (Italian ryegrass, Lolium multiflorum); test: Test A preemergence; settings: for Ryegrass, Italian plant response rating (0 to 100 scale, 0 is no effect, 100 is complete control): visual injury approx. 10 d
Outline: as §1

[4] = tested on: barnyardgrass (Echinochloa crus-galli); test: Test A preemergence; settings: for Barnyardgrass plant response rating (0 to 100 scale, 0 is no effect, 100 is complete control): visual injury approx. 10 d
Outline: as §1

[5] = tested on: Kochia (Kochia scoparia); test: Test A preemergence; settings: for Kochia plant response rating (0 to 100 scale, 0 is no effect, 100 is complete control): visual injury approx. 10 d
Outline: as §1

[6] = tested on: pigweed (Amaranthus retroflexus); test: Test A preemergence; settings: for Pigweed plant response rating (0 to 100 scale, 0 is no effect, 100 is complete control): visual injury approx. 10 d
[7] = tested on: sedge, umbrella (small-flower umbrella sedge, Cyperus difformis); test: Test B flooded paddy test; settings: Flood, 0 to 100 scale where 0 is no effect and 100 is complete control, 13 to 15 d
Outline: (§2)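 Evaluation by eye, against controls, occurred 13–15 d post-treatment in a greenhouse, using a 0 (no effect) to 100 (complete control) scale. Application was into the paddy water, 3 cm deep over the soil, on 2-leaf plants.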

[8] = tested on: ducksalad (Heteranthera limosa); test: Test B flooded paddy test; settings: Flood, 0 to 100 scale where 0 is no effect and 100 is complete control, 13 to 15 d
Outline: as §2

[9] = tested on: rice (Oryra sativa); test: Test B flooded paddy test; settings: Flood, 0 to 100 scale where 0 is no effect and 100 is complete control, 13 to 15 d
Outline: as §2

[10] = tested on: barnyardgrass (Echinochloa crus-galli); test: Test B flooded paddy test; settings: Flood, 0 to 100 scale where 0 is no effect and 100 is complete control, 13 to 15 d
Outline: as §2

[11] = tested on: ragweed (common ragweed, Ambrosia elatior); test: Test A postemergence
Outline: as §1

[12] = tested on: corn (Zea mays); test: Test A postemergence
Outline: as §1

[13] = tested on: wheat (Triticum aestivum); test: Test A postemergence
Outline: as §1

[14] = tested on: blackgrass (Alopecurus myosuroides); test: Test A postemergence; settings: for Blackgrass plant response rating: visual injury rating on 0 to 100 scale (0 no effect, 100 complete control)
Outline: as §1

[15] = tested on: giant foxtail (Setaria faberii); test: Test A postemergence
Outline: as §1

[16] = tested on: ryegrass, Italian (Italian ryegrass, Lolium multiflorum); test: Test A postemergence
Outline: as §1

[17] = tested on: Galium (catchweed bedstraw, Galium aparine); test: Test A postemergence
Outline: as §1

[18] = tested on: barnyardgrass (Echinochloa crus-galli); test: Test A postemergence; settings: for Barnyardgrass plant response rating: visual injury rating on 0 to 100 scale (0 no effect, 100 complete control)
Outline: as §1

[19] = tested on: Kochia (Kochia scoparia); test: Test A postemergence
Outline: as §1

[20] = tested on: pigweed (Amaranthus retroflexus); test: Test A postemergence
Outline: as §1

[21] = 125 g ai/ha, preemergence, 0 to 100 scale (0 no effect, 100 complete control)
[22] = 125 g ai/ha, postemergence, visual injury rating on 0 to 100 scale (0 no effect, 100 complete control), approx. 10 d
[23] = 500 g ai/ha, postemergence, 0 to 100 scale, 0 no effect, 100 complete control
[24] = 125 g ai/ha, postemergence, approx. 10 d
[25] = 125 g ai/ha, Preemergence, visual injury after approximately 10 d, 0 to 100 scale where 0 is no effect and 100 is complete control
[26] = 500 g ai/ha, preemergence, 0 to 100 scale, 0 = no effect, 100 = complete control
[27] = 125 g ai/ha, postemergence, visual rating after approx. 10 d, 0 to 100 scale (0 no effect, 100 complete control)
[28] = 500 g ai/ha, postemergence, visual injury, 0 to 100 scale (0 no effect, 100 complete control), approx. 10 d
[29] = Postemergence, 500 g ai/ha, 0 to 100 scale where 0 is no effect and 100 is complete control

Structure (SMILES): Cc1cc(C2CNC(=O)C2C(=O)Nc2cccc(F)c2F)ccc1F (stereo not drawn) [Compound 400]
- Plant response rating, Ragweed [1, 21]: 70
- Ragweed plant response rating (0 to 100 scale, 0 is no effect, 100 is complete control) ([1]; Preemergence, 500 g ai/ha): 90
- Plant response rating, Foxtail, Giant [2, 21]: 90
- Foxtail, Giant plant response rating (0 to 100 scale, 0 is no effect, 100 is complete control) ([2]; Preemergence, 500 g ai/ha): 100
- Plant response rating, Ryegrass, Italian [3, 21]: 30
- Ryegrass, Italian plant response rating (0 to 100 scale, 0 is no effect, 100 is complete control) ([3]; Preemergence, 500 g ai/ha): 40
- Plant response rating, Barnyardgrass [4, 21]: 90
- Barnyardgrass plant response rating (0 to 100 scale, 0 is no effect, 100 is complete control) ([4]; Preemergence, 500 g ai/ha): 100
- Plant response rating, Kochia [5, 21]: 60
- Kochia plant response rating (0 to 100 scale, 0 is no effect, 100 is complete control) ([5]; Preemergence, 500 g ai/ha): 80
- Plant response rating, Pigweed [6, 21]: 60
- Pigweed plant response rating (0 to 100 scale, 0 is no effect, 100 is complete control) ([6]; Preemergence, 500 g ai/ha): 60
- Plant response rating, Sedge, Umbrella ([7]; 250 g ai/ha): 0
- Plant response rating, Ducksalad ([8]; 250 g ai/ha): 100
- Plant response rating, Rice ([9]; 250 g ai/ha): 20
- Plant response rating, Barnyardgrass ([10]; 250 g ai/ha): 65
- Ragweed plant response rating [11, 22]: 40
- Plant response rating, Ragweed [11, 23]: 50
- Corn plant response rating [12, 22]: 20
- Plant response rating, Corn [12, 23]: 80
- Wheat plant response rating [13, 22]: 30
- Plant response rating, Wheat [13, 23]: 70
- Blackgrass plant response rating [14, 24]: 60
- Plant response rating, Blackgrass [14, 23]: 60
- Foxtail, Giant plant response rating [15, 22]: 50
- Plant response rating, Foxtail, Giant [15, 23]: 70
- Ryegrass, Italian plant response rating [16, 22]: 20
- Plant response rating, Ryegrass, Italian [16, 23]: 90
- Galium plant response rating [17, 22]: 40
- Plant response rating, Galium [17, 23]: 60
- Barnyardgrass plant response rating [18, 24]: 90
- Plant response rating, Barnyardgrass [18, 23]: 90
- Kochia plant response rating [19, 22]: 60
- Plant response rating, Kochia [19, 23]: 70
- Pigweed plant response rating [20, 22]: 30
- Plant response rating, Pigweed [20, 23]: 50

Structure (SMILES): O=C1NCC(c2cccc(C(F)(F)F)c2)C1C(=O)Nc1ccc(F)cc1Cl (racemic) [Compound 676]
- Plant response rating, Ragweed [1, 25]: 0
- Plant response rating, Ragweed [1, 26]: 0
- Plant response rating, Foxtail, Giant [2, 25]: 80
- Plant response rating, Foxtail, Giant [2, 26]: 90
- Plant response rating, Ryegrass, Italian [3, 25]: 0
- Plant response rating, Ryegrass, Italian [3, 26]: 20
- Plant response rating, Barnyardgrass [4, 25]: 70
- Plant response rating, Barnyardgrass [4, 26]: 90
- Plant response rating, Kochia [5, 25]: 0
- Plant response rating, Kochia [5, 26]: 0
- Plant response rating, Pigweed [6, 25]: 0
- Plant response rating, Pigweed [6, 26]: 0
- Plant response rating, Sedge, Umbrella ([7]; 500 g ai/ha): 0
- Plant response rating, Ducksalad ([8]; 500 g ai/ha): 85
- Plant response rating, Rice ([9]; 500 g ai/ha): 15
- Plant response rating, Barnyardgrass ([10]; 500 g ai/ha): 80
- Plant response rating, Ragweed [11, 27]: 0
- Plant response rating, Ragweed [11, 28]: 0
- Plant response rating, Corn [12, 27]: 0
- Plant response rating, Corn [12, 28]: 50
- Plant response rating, Wheat [13, 27]: 0
- Plant response rating, Wheat [13, 28]: 20
- Plant response rating, Blackgrass [14, 27]: 20
- Plant response rating, Blackgrass [14, 28]: 40
- Plant response rating, Foxtail, Giant [15, 27]: 20
- Plant response rating, Foxtail, Giant [15, 28]: 80
- Plant response rating, Ryegrass, Italian [16, 27]: 0
- Plant response rating, Ryegrass, Italian [16, 28]: 20
- Plant response rating, Galium [17, 27]: 0
- Plant response rating, Galium [17, 28]: 40
- Plant response rating, Barnyardgrass [18, 27]: 50
- Plant response rating, Barnyardgrass [18, 28]: 80
- Plant response rating, Kochia [19, 27]: 0
- Plant response rating, Kochia [19, 28]: 0
- Plant response rating, Pigweed [20, 27]: 0
- Plant response rating, Pigweed [20, 28]: 0

Structure (SMILES): CN1CC(c2cccc(OC(F)(F)C(F)F)c2)C(C(=O)Nc2ccccc2F)C1=O (stereo not drawn) [Compound 539]
- Plant response rating, Ragweed [1, 25]: 0
- Ragweed plant response rating (0 to 100 scale, 0 is no effect, 100 is complete control) ([1]; Preemergence, 500 g ai/ha): 70
- Plant response rating, Foxtail, Giant [2, 25]: 90
- Foxtail, Giant plant response rating (0 to 100 scale, 0 is no effect, 100 is complete control) ([2]; Preemergence, 500 g ai/ha): 90
- Plant response rating, Ryegrass, Italian [3, 25]: 30
- Ryegrass, Italian plant response rating (0 to 100 scale, 0 is no effect, 100 is complete control) ([3]; Preemergence, 500 g ai/ha): 50
- Plant response rating, Barnyardgrass [4, 25]: 90
- Barnyardgrass plant response rating (0 to 100 scale, 0 is no effect, 100 is complete control) ([4]; Preemergence, 500 g ai/ha): 90
- Plant response rating, Kochia [5, 25]: 60
- Kochia plant response rating (0 to 100 scale, 0 is no effect, 100 is complete control) ([5]; Preemergence, 500 g ai/ha): 70
- Plant response rating, Pigweed [6, 25]: 40
- Pigweed plant response rating (0 to 100 scale, 0 is no effect, 100 is complete control) ([6]; Preemergence, 500 g ai/ha): 80
- Plant response rating, Sedge, Umbrella ([7]; 250 g ai/ha): 0
- Plant response rating, Ducksalad ([8]; 250 g ai/ha): 95
- Plant response rating, Rice ([9]; 250 g ai/ha): 0
- Plant response rating, Barnyardgrass ([10]; 250 g ai/ha): 65
- Plant response rating, Ragweed [11, 27]: 0
- Plant response rating, Ragweed [11, 29]: 50
- Plant response rating, Corn [12, 27]: 70
- Plant response rating, Corn [12, 29]: 90
- Plant response rating, Wheat [13, 27]: 50
- Plant response rating, Wheat [13, 29]: 70
- Blackgrass plant response rating [14, 24]: 50
- Plant response rating, Blackgrass [14, 29]: 80
- Plant response rating, Foxtail, Giant [15, 27]: 90
- Plant response rating, Foxtail, Giant [15, 29]: 90
- Plant response rating, Ryegrass, Italian [16, 27]: 0
- Plant response rating, Ryegrass, Italian [16, 29]: 70
- Plant response rating, Galium [17, 27]: 70
- Plant response rating, Galium [17, 29]: 70
- Barnyardgrass plant response rating [18, 24]: 90
- Plant response rating, Barnyardgrass [18, 29]: 90
- Plant response rating, Kochia [19, 27]: 40
- Plant response rating, Kochia [19, 29]: 70
- Plant response rating, Pigweed [20, 27]: 20
- Plant response rating, Pigweed [20, 29]: 50
